For data set [1], the target named is T1, rat α3β2 nAChRs (Rattus norvegicus, UniProt P04757+P12390).
T1 construct: expressed in transfected cells; host or cells: Xenopus laevis oocytes injected with cRNA
Put plainly: biochemical.

The format of data set [2] is physicochemical. The settings on record: pH 7.
The target in data set [3] is T1, rat α3β2 nAChRs. It counts as biochemical.
The test system of data set [4] is AChBPs from different species. To be noted: cited from earlier work.
Data set [5] deals with α3β2 nAChRs. To be noted: cited from earlier work.

“Also recorded” adds a separate entry of the source.

T1 sequence (P04757 26-499 limits assumed): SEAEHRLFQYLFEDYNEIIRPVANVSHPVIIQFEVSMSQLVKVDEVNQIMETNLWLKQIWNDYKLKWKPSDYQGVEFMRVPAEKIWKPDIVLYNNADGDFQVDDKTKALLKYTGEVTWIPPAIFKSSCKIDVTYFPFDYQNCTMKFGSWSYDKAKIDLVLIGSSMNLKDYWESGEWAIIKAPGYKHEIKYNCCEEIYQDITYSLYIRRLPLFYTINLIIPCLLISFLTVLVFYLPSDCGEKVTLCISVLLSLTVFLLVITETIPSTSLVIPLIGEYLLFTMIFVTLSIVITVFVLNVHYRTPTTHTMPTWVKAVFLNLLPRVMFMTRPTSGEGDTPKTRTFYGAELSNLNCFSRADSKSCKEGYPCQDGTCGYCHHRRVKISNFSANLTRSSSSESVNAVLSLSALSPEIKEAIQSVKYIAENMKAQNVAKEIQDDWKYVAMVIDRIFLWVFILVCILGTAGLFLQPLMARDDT
T1 sequence (P12390 25-500 limits assumed): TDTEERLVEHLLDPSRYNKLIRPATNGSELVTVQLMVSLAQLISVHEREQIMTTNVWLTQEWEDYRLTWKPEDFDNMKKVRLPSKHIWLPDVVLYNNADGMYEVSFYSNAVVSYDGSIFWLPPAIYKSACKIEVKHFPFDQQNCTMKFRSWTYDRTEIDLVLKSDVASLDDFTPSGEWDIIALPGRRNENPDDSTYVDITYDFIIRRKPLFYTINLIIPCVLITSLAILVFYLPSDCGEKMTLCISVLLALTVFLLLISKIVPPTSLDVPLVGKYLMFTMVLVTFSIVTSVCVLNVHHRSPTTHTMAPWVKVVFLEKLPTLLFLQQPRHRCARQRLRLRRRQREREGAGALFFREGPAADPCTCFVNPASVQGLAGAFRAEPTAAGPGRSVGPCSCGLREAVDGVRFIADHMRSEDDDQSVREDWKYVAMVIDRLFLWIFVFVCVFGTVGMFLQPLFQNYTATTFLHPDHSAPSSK

Take `CC[C@H](C)[C@@H]1NC(=O)[C@@H]2CSSC[C@H](NC(=O)CN)C(=O)N[C@@H](CSSC[C@@H](C(N)=O)NC(=O)[C@H](CC(C)C)NC(=O)[C@H](CC(=O)O)NC(=O)[C@@H]3CCCN3C(=O)[C@H](CC(N)=O)NC(=O)[C@H](CC(N)=O)NC(=O)[C@H](C)NC1=O)C(=O)N[C@@H](CO)C(=O)N[C@@H](CCCNC(=N)N)C(=O)N1CCC[C@H]1C(=O)N1CCC[C@H]1C(=O)N2` [globular TxIA, α-conotoxin TxIA]: in data set [1], it took 5.4 nM to reach half-maximal inhibition (IC50), the “activity on α3β2 nAChRs” value is on record as “most potent isoform; also recorded: strongly inhibited; also recorded: most active form”, the “fold more potent than ribbon isomer” value is listed as ~ 80 -fold and the “inhibition of ACh-evoked response” value was “almost complete inhibition”. The reversibility of inhibition result in data set [1] is reported as “reversibly inhibited”. Besides, in data set [2], the CD minimum entry was “around 208 nm”; the “CD minimum, second of double minimum” value is reported as ~222 nm; the “secondary structure by CD” value is recorded as “contained some α-helical structure”. Moreover, the “relative potency among venom components” value in data set [3] is “most potent component; also recorded: highest potency”. Besides, the “affinity to AChBPs” value in data set [4] is on record as “high affinity”. The “selectivity” value in data set [5] is “selectively targeted the α3β2 nAChRs”.

On to `CC[C@H](C)[C@@H]1NC(=O)[C@@H]2CSSC[C@H](NC(=O)[C@@H](NC(=O)CN)CSSC[C@@H](C(N)=O)NC(=O)[C@H](CC(C)C)NC(=O)[C@H](CC(=O)O)NC(=O)[C@@H]3CCCN3C(=O)[C@H](CC(N)=O)NC(=O)[C@H](CC(N)=O)NC(=O)[C@H](C)NC1=O)C(=O)N[C@@H](CO)C(=O)N[C@@H](CCCNC(=N)N)C(=O)N1CCC[C@H]1C(=O)N1CCC[C@H]1C(=O)N2` [ribbon TxIA], for which, in data set [1], half-maximal inhibition (IC50) required 430 nM, the “activity on α3β2 nAChRs” value is reported as “weaker potency” and the “fold less potent than globular isomer” value is recorded as ~ 80 times. Further, the inhibition at 0.5 µM in data set [1] (read-out: inhibition of ACh evoked current amplitude) was ~65%. The “secondary structure by CD” value in data set [2] is given as “between them”.

By IC50 is commonly meant the point on the concentration scale where inhibition reaches its midpoint. Low readings indicate higher potency, high ones lower potency. In general, inhibition refers to the relative decrease from the control value, in per cent.
